Read-outs that look alike come from different tables or passages of the source.
How the values were obtained:
[1] = tested on: GBM cell line (human cervical carcinoma cells of ME 180 (GBM8401)); assay: Growth inhibition assay, GBM cell line; assay type: cell-based; settings: cell counting, read-out: IC50 GBM (concentration required to inhibit cell growth by 50% relative to controls)
Experimental: (§1) Growth inhibition was measured in three human carcinoma cell lines (GBK KB and CHO) using a previously described […] assay. Hwang, J.-M. et al., Chin. Med. J (Taipei), 51, 166-175 (1993). Human oral epidermoid carcinoma cells (KB cell line), human cervical carcinoma cells of ME 180 (GBM8401) and Chinese hamster ovary (CHO) cells grown in plateau phase were used in all experiments. Each cell line was further divided into control and experimental groups, respectively.
(§2) Stock solutions of the test compounds were prepared in DMSO and diluted with DMEM to give a final concentration of DMSO of 0.2%. Controls were performed with DMSO or with medium alone. The medium was removed and each well was rinsed with 100 μL PBS 48 hours after addition of the test compound to the culture. The cells were then incubated with sterile 0.5% trypsin, 0.2% EDTA in PBS for 20 minutes at 37° C. The detached cells from each well were suspended in DMEM and dispersed into single cells by gentle pipeting through an Eppendorf pipette and cell growth was determined directly by counting the cells in a Neubauer counting chamber using phase contrast microscopy. Inhibition was calculated by comparison of the mean values of the test compound (N=3) with the control (N=6−8) activity: (1-test compound/control) ×100. Inhibition was statistically significant compared to that of control (Student's t Test; P=0.05). IC50 values (concentration required to inhibit cell growth by 50%) were determined for each agent which was derived by interpolation of a log inhibitor concentration versus response plot using four or more different concentrations of the compound spanning the 50% inhibition point.

[2] = tested on: iron-induced lipid peroxidation in rat brain homogenates; assay: Lipid peroxidation assay (TBA); assay type: biochemical, Wistar rats; settings: ferrous ion 200 μM, 37° C. 30 min; for % Inhibition (1 μM), relative percentage of inhibition: 1 μM compound; for % Inhibition (10 μM), relative percentage of inhibition: 10 μM compound
Experimental: Rat brain homogenate was prepared from the brains of freshly killed Wistar rats and its peroxidation. In the presence of iron ions was measured by the thiobarbituric acid (TBA). Teng, C. M. et al., Eur. J. Pharmacol., 303, 129-139 (1996). Tetramethoxypropane was used as a standard, and the results were expressed as nanomoles of malondialdehyde equivalents per milligram of protein of rat brain homogenates. In brief, whole brain tissue, excluding the cerebellum, was washed and homogenized in 10 volumes of ice-cold Krebs buffer (10 mM N-2 hydroxyethyl-piperazine-N′-2-ethanesulfonic acid (Hepes), 10 mM glucose, 140 mM NaCl, 3.6 mM KCl, 1.5 mM CaCl2, 1.4 mM KH2PO4, 0.7 mM MgSO4, pH 7.4) using a glass Dounce homogenizer. […] The reaction mixture with test compounds or vehicle was incubated for 10 min, then stimulated by addition of ferrous ion (200 μM freshly prepared), and maintained at 37° C. for 30 min. The reactions were terminated by adding […] of ice-cold trichloroacetic acid solution (4% (w/v) in 0.3 N HCl) and […], of thiobarbituric acid-reactive substance reagent (0.5% (w/v) thiobarbituric acid in 50% (v/v) acetic acid). After boiling for 15 min, the samples were cooled and extracted with n-butanol. The extent of lipid peroxidation was estimated as thiobarbituric acid-reactive substances and was read at 532 nm in a spectrophotometer (Shimadzu UV-160).

[3] = tested on: Human oral epidermoid carcinoma cells (KB cell line); assay: Growth inhibition assay, KB cell line; assay type: cell-based; settings: 48 hours, cell counting, read-out: IC50 KB (concentration required to inhibit cell growth by 50% relative to controls)
Experimental: as §1, §2

[4] = tested on: Chinese hamster ovary (CHO) cells; assay: Growth inhibition assay, CHO cells; assay type: cell-based; settings: 48 hours, cell counting, read-out: IC50 CHO (concentration required to inhibit cell growth by 50% relative to controls)
Experimental: as §1, §2

Compound | IC50 ([1]; 48 hours) | % Inhibition (1 μM), relative percentage of inhibition [2] | % Inhibition (10 μM), relative percentage of inhibition [2] | IC50 [3] | IC50 ([1]; Homo sapiens, ME-180, 48 hours) | IC50 ([4]; Cricetulus griseus) | IC50 ([3]; Homo sapiens) | IC50 [4]
1,5-Dichloro-9-(p-toluoxy)-anthracene [Compound 3o] | 11.2 µM | 2.9% | 25.6% | 865 µM | – | – | – | –
Cc1c(C)c2c(c(C)c1O)CC[C@@](C)(CCC[C@H](C)CCC[C@H](C)CCCC(C)C)O2 [(+)-a-Tocopherol, reference compound] | – | 61.6% | 100% | – | – | – | – | –
O=C(Oc1c2cccc(Cl)c2cc2cccc(Cl)c12)c1ccccc1 [Compound 3L, 1,5-Dichloro-9-benzoyloxy-anthracene] | – | 4.6% | 14.0% | – | 226 µM | 1440 µM | 813 µM | –
CC(=O)Oc1c2cccc(Cl)c2cc2cccc(Cl)c12 [Compound 3a, 1,5-Dichloro-9-acetyloxy-anthracene] | – | 25.5% | 34.4% | – | 48.1 µM | 114 µM | 473 µM | –
O=C(CBr)Oc1c2cccc(Cl)c2cc2cccc(Cl)c12 [Compound 3b] | 19.2 µM | 100% | 100% | 136 µM | – | – | – | 1010 µM
O=C(CCl)Oc1c2cccc(Cl)c2cc2cccc(Cl)c12 [Compound 3c] | 106 µM | 100% | 100% | 528 µM | – | – | – | 1.2 µM
CCC(=O)Oc1c2cccc(Cl)c2cc2cccc(Cl)c12 [Compound 3d] | 17.2 µM | 100% | 100% | 471 µM | – | – | – | 1160 µM
CC(C)C(=O)Oc1c2cccc(Cl)c2cc2cccc(Cl)c12 [Compound 3e] | 196 µM | 1.5% | 28.6% | 431 µM | – | – | – | 1310 µM
CC(Cl)C(=O)Oc1c2cccc(Cl)c2cc2cccc(Cl)c12 (stereo not drawn) [Compound 3f] | 126 µM | 9.8% | 60.6% | 374 µM | – | – | – | 955 µM
O=C(Oc1c2cccc(Cl)c2cc2cccc(Cl)c12)C(Cl)Cl [Compound 3g] | 1.4 µM | 61.7% | 100% | 528 µM | – | – | – | 1280 µM
CCCC(=O)Oc1c2cccc(Cl)c2cc2cccc(Cl)c12 [Compound 3h] | 572 µM | 11.8% | 17.7% | 544 µM | – | – | – | 0.1 µM
O=C(CCCBr)Oc1c2cccc(Cl)c2cc2cccc(Cl)c12 [Compound 3i] | 205 µM | 38.1% | 100% | 457 µM | – | – | – | 110 µM
O=C(CCCCl)Oc1c2cccc(Cl)c2cc2cccc(Cl)c12 [Compound 3j] | 1.1 µM | 10.0% | 29.0% | 11 µM | – | – | – | 1170 µM
CCCCCC(=O)Oc1c2cccc(Cl)c2cc2cccc(Cl)c12 [Compound 3k] | 1.2 µM | 12.2% | 17.2% | 317 µM | – | – | – | 55.1 µM
Cc1ccccc1C(=O)Oc1c2cccc(Cl)c2cc2cccc(Cl)c12 [Compound 3m] | 108 µM | 0% | 23.0% | 1140 µM | – | – | – | 1510 µM
Cc1cccc(C(=O)Oc2c3cccc(Cl)c3cc3cccc(Cl)c23)c1 [Compound 3n, 1,5-Dichloro-9-(m-toluyloxy)-anthracene] | 398 µM | 10.9% | 22.4% | 111 µM | – | – | – | 1200 µM
O=C(Oc1c2cccc(Cl)c2cc2cccc(Cl)c12)c1cccc(Cl)c1 [Compound 3p] | 11.7 µM | 8.6% | 30.6% | 1050 µM | – | – | – | –
COc1cc(Cl)ccc1C(=O)Oc1c2cccc(Cl)c2cc2cccc(Cl)c12 [Compound 3t] | 10.8 µM | 0% | 10.3% | 818 µM | – | – | – | 114 µM
O=C(Oc1c2cccc(Cl)c2cc2cccc(Cl)c12)c1ccc(Cl)cc1Cl [Compound 3u] | 87.7 µM | 1.7% | 16.0% | 108 µM | – | – | – | 1180 µM
O=C(Cc1ccccc1)Oc1c2cccc(Cl)c2cc2cccc(Cl)c12 [Compound 3v] | 110 µM | 13.7% | 32.8% | 12.6 µM | – | – | – | 1190 µM
O=C(CCc1ccccc1)Oc1c2cccc(Cl)c2cc2cccc(Cl)c12 [Compound 3w] | 1730 µM | 29.3% | 36.6% | 936 µM | – | – | – | 1160 µM
COc1cccc2c1C(=O)c1c(O)c3c(c(O)c1C2=O)C[C@@](O)(C(=O)CO)C[C@@H]3O[C@H]1C[C@H](N)[C@H](O)[C@H](C)O1 [Doxorubicin, reference compound] | – | – | – | – | 599 µM | 499 µM | 420 µM | –
CN(Cc1cnc2nc(N)nc(N)c2n1)c1ccc(C(=O)N[C@@H](CCC(=O)O)C(=O)O)cc1 [Methotrexate, reference compound] | – | – | – | – | 9290 µM | 9140 µM | 47200 µM | –
CO[C@@]12[C@H](COC(N)=O)C3=C(C(=O)C(C)=C(N)C3=O)N1C[C@@H]1N[C@@H]12 [Mitomycin-C, reference compound] | 1900 µM | – | – | – | – | – | – | 2120 µM

Source: patent US6369246B2, “Synthesis and pharmaceuticals of novel 9-substituted-1, 5-dichloroanthracene analogs” (Dr. Keith Chan, GloboAsia, LLC, priority 1999, dated 2002)
